Data published in ChEMBL document CHEMBL1148926, “Blanchaquinone: a new anthraquinone from an Australian Streptomyces sp” (2004).

tested on: Bacillus subtilis; assay: Antibacterial activity against Bacillus subtilis ATCC 6633 after 24 hrs by microtiter plate assay; assay type: functional

Row | SMILES | LD99 [µg/mL]
1 | CC[C@@]1(O)C[C@H](O)c2c(O)c3c(c(O)c2[C@H]1C(=O)OC)C(=O)c1cccc(O)c1C3=O | 0.8
2 | COC(=O)[C@@H]1c2c(O)c3c(c(O)c2[C@@H](O)C[C@]1(O)CC(C)=O)C(=O)c1c(O)cccc1C3=O | 13
3 | COC(=O)Cc1cc2c(c(O)c1C(C)=O)C(=O)c1c(O)cccc1C2=O | 3
4 | CCc1ccc2c(O)c3c(c(O)c2c1)C(=O)c1cccc(O)c1C3=O | 13
5 | COC(=O)[C@@H]1c2c(O)c3c(c(O)c2[C@@H](O)C[C@@]1(C)O)C(=O)c1c(O)cccc1C3=O | 6
6 | CCCCC(=O)c1c(CC(=O)OC)cc2c(c1O)C(=O)c1c(O)cccc1C2=O [BLANCHAQUINONE] | 6
